According to PubChem BioAssay (NCI):
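How tested: cells in 96-well plates exposed to compound for 48 hours at five concentrations. The concentration for 50% growth inhibition is given as GI50. Definition used: TGI = concentration required for complete inhibition of growth.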

Legend:
Test in all cases: inhibition of tumour cell growth, NCI panel, 48 h
SW-620 colon = tested on: SW-620 colon
UACC-62 melanoma = tested on: UACC-62 melanoma
ACHN renal = tested on: ACHN renal
HCT-116 colon = tested on: HCT-116 colon
LOX IMVI melanoma = tested on: LOX IMVI melanoma
K-562 leukemia = tested on: K-562 leukemia
CAKI-1 renal = tested on: CAKI-1 renal
SF-295 CNS = tested on: SF-295 CNS
SR leukemia = tested on: SR leukemia
M14 melanoma = tested on: M14 melanoma

CC(=O)NC1=C(C)C(=O)c2c(nc3n2CCC3O)C1=N (stereo unspecified)
TGI (SW-620 colon): 26.4 µM | TGI (UACC-62 melanoma): 15.5 µM | TGI (ACHN renal): 37.7 µM | TGI (HCT-116 colon): 6.88 µM | TGI (LOX IMVI melanoma): 19.2 µM | TGI (K-562 leukemia): > 100 µM | TGI (CAKI-1 renal): 27.7 µM | TGI (SF-295 CNS): 38 µM | TGI (SR leukemia): > 100 µM

COC(=O)CNC(=O)[C@@H](OC)[C@@H]1Cc2cc3cc(OC4CC(OC5CC(O)C(O)C(C)O5)C(O)C(C)O4)c(C)c(O)c3c(O)c2C(=O)[C@H]1OC1CC(OC2CC(OC3CC(C)(O)C(O)C(C)O3)C(O)C(C)O2)C(O)C(C)O1 (stereo partly specified)
GI50 (SW-620 colon): 0.184 µM | TGI (SW-620 colon): > 50 µM | GI50 (M14 melanoma): 0.239 µM | TGI (M14 melanoma): 2.4 µM | GI50 (UACC-62 melanoma): 0.0536 µM | TGI (UACC-62 melanoma): 0.26 µM | GI50 (ACHN renal): 0.19 µM | TGI (ACHN renal): 6.94 µM | GI50 (HCT-116 colon): 0.0462 µM | TGI (HCT-116 colon): 5.38 µM | GI50 (LOX IMVI melanoma): 0.0592 µM | TGI (LOX IMVI melanoma): > 50 µM | GI50 (K-562 leukemia): 0.192 µM | TGI (K-562 leukemia): > 50 µM | GI50 (CAKI-1 renal): 0.243 µM | TGI (CAKI-1 renal): 3.84 µM | GI50 (SF-295 CNS): 0.109 µM | TGI (SF-295 CNS): > 50 µM | GI50 (SR leukemia): 0.0298 µM | TGI (SR leukemia): > 50 µM

NC(C(=O)[O-])C(=O)[O-].NC1CCCCC1N.[Pt+4]
GI50 (SW-620 colon): 1.75 µM | TGI (SW-620 colon): > 100 µM | GI50 (M14 melanoma): 20.2 µM | TGI (M14 melanoma): > 100 µM | GI50 (UACC-62 melanoma): 2.39 µM | TGI (UACC-62 melanoma): 54.5 µM | GI50 (ACHN renal): 11.2 µM | TGI (ACHN renal): > 100 µM | GI50 (HCT-116 colon): 2.49 µM | TGI (HCT-116 colon): 26.6 µM | GI50 (LOX IMVI melanoma): 2.85 µM | TGI (LOX IMVI melanoma): > 100 µM | GI50 (K-562 leukemia): 5.8 µM | TGI (K-562 leukemia): > 100 µM | GI50 (CAKI-1 renal): 1.07 µM | TGI (CAKI-1 renal): 3.99 µM | GI50 (SF-295 CNS): 2.27 µM | TGI (SF-295 CNS): 32.5 µM

COc1cc(Nc2nc(N[C@H]3CCCC[C@@H]3N)nc3cc[nH]c(=O)c23)cc(OC)c1
GI50 (SW-620 colon): 1.16 µM | TGI (SW-620 colon): 2.97 µM | GI50 (M14 melanoma): 0.379 µM | TGI (M14 melanoma): 2.16 µM | GI50 (UACC-62 melanoma): 0.844 µM | TGI (UACC-62 melanoma): 19.1 µM | GI50 (ACHN renal): 1.38 µM | TGI (ACHN renal): 19.9 µM | GI50 (HCT-116 colon): 1.03 µM | TGI (HCT-116 colon): 2.27 µM | GI50 (LOX IMVI melanoma): 0.468 µM | TGI (LOX IMVI melanoma): 1.77 µM | GI50 (K-562 leukemia): 2.47 µM | TGI (K-562 leukemia): 10.3 µM | GI50 (CAKI-1 renal): 1.84 µM | TGI (CAKI-1 renal): 10.9 µM | GI50 (SF-295 CNS): 1.5 µM | TGI (SF-295 CNS): 4.46 µM | GI50 (SR leukemia): 0.8 µM | TGI (SR leukemia): 3.91 µM

Cn1ccnc1C(=O)/C=C/c1ccc(CC(=O)Nc2ccccc2)cc1
GI50 (SW-620 colon): 2.75 µM | TGI (SW-620 colon): 8.81 µM | GI50 (M14 melanoma): 4.55 µM | TGI (M14 melanoma): 10.8 µM | GI50 (UACC-62 melanoma): 4.13 µM | TGI (UACC-62 melanoma): 9.95 µM | GI50 (ACHN renal): 5.24 µM | TGI (ACHN renal): 15.6 µM | GI50 (HCT-116 colon): 1.68 µM | TGI (HCT-116 colon): 5.13 µM | GI50 (LOX IMVI melanoma): 1.03 µM | TGI (LOX IMVI melanoma): 4.27 µM | GI50 (K-562 leukemia): 1.07 µM | TGI (K-562 leukemia): > 25 µM | GI50 (SF-295 CNS): 5.44 µM | TGI (SF-295 CNS): 16.5 µM | GI50 (SR leukemia): 1.16 µM | TGI (SR leukemia): 18.9 µM

CCC(CC)n1c(C)nc2c1C(=O)c1ccccc1C2=O
TGI (SW-620 colon): > 100 µM | TGI (M14 melanoma): > 100 µM | TGI (UACC-62 melanoma): 36.2 µM | TGI (ACHN renal): > 100 µM | TGI (HCT-116 colon): 77.4 µM | TGI (LOX IMVI melanoma): 54.7 µM | TGI (K-562 leukemia): > 100 µM | TGI (SF-295 CNS): > 100 µM | TGI (SR leukemia): > 100 µM

CC(C)C1CC(O)O[C@@H]([C@@H](C)[C@H]2CC(=O)[C@@H]3[C@@H]4[C@@H](O)[C@H](O)[C@H]5[C@@H](O)[C@H](O)CC[C@]5(C)[C@H]4CC[C@]23C)C1 (stereo partly specified)
TGI (SW-620 colon): > 100 µM | TGI (M14 melanoma): > 100 µM | TGI (UACC-62 melanoma): > 100 µM | TGI (ACHN renal): 62.1 µM | TGI (HCT-116 colon): > 100 µM | TGI (LOX IMVI melanoma): > 100 µM | TGI (K-562 leukemia): > 100 µM | TGI (SF-295 CNS): > 100 µM | TGI (SR leukemia): > 100 µM

CC1=C(O)C(=O)C2C(=O)C1C(C)C2c1ccc(Cl)cc1 (stereo unspecified)
TGI (SW-620 colon): > 100 µM | TGI (M14 melanoma): > 100 µM | TGI (UACC-62 melanoma): > 100 µM | TGI (ACHN renal): > 100 µM | TGI (LOX IMVI melanoma): > 100 µM | TGI (K-562 leukemia): > 100 µM | TGI (CAKI-1 renal): > 100 µM | TGI (SF-295 CNS): > 100 µM | TGI (SR leukemia): > 100 µM

NNC(=O)CCC(=O)NC1C2CC3CC(C2)CC1C3 (stereo unspecified)
TGI (SW-620 colon): > 100 µM | TGI (M14 melanoma): > 100 µM | TGI (UACC-62 melanoma): > 100 µM | TGI (ACHN renal): > 100 µM | TGI (HCT-116 colon): > 100 µM | TGI (LOX IMVI melanoma): > 100 µM | TGI (K-562 leukemia): > 100 µM | TGI (CAKI-1 renal): > 100 µM | TGI (SF-295 CNS): > 100 µM

NC(=O)N1N=C2c3ccccc3SC[C@H]2[C@@H]1c1ccccc1
TGI (SW-620 colon): > 100 µM | TGI (ACHN renal): > 100 µM | TGI (HCT-116 colon): 28.2 µM | TGI (LOX IMVI melanoma): 32.4 µM | TGI (K-562 leukemia): > 100 µM | TGI (SF-295 CNS): 80.4 µM | TGI (SR leukemia): > 100 µM

O=C(CSC(=S)N1CCOCC1)Nc1nc2c(s1)CCCC2
TGI (M14 melanoma): > 100 µM | TGI (ACHN renal): > 100 µM | TGI (HCT-116 colon): > 100 µM | TGI (LOX IMVI melanoma): > 100 µM | TGI (SF-295 CNS): > 100 µM | TGI (SR leukemia): > 100 µM

COc1ccc(-c2cncn2-c2ccc(OC)cc2)cc1
GI50 (SW-620 colon): 26.1 µM | TGI (SW-620 colon): > 100 µM | GI50 (M14 melanoma): 20.8 µM | TGI (M14 melanoma): 46.9 µM | GI50 (UACC-62 melanoma): 15.7 µM | TGI (UACC-62 melanoma): 53.1 µM | GI50 (ACHN renal): 21.3 µM | TGI (ACHN renal): 60.4 µM | GI50 (HCT-116 colon): 20.5 µM | TGI (HCT-116 colon): 44 µM | GI50 (LOX IMVI melanoma): 29.6 µM | TGI (LOX IMVI melanoma): > 100 µM | GI50 (K-562 leukemia): 10.8 µM | TGI (K-562 leukemia): 36.9 µM | GI50 (CAKI-1 renal): 20.6 µM | TGI (CAKI-1 renal): 44 µM | GI50 (SF-295 CNS): 12.7 µM | TGI (SF-295 CNS): 47 µM

CC(=O)OC1c2ccccc2CCCCCCC12OCCO2 (stereo unspecified)
TGI (SW-620 colon): > 100 µM | TGI (M14 melanoma): > 100 µM | TGI (UACC-62 melanoma): > 100 µM | TGI (ACHN renal): > 100 µM | TGI (HCT-116 colon): > 100 µM | TGI (LOX IMVI melanoma): > 100 µM | TGI (K-562 leukemia): > 100 µM | TGI (CAKI-1 renal): > 100 µM | TGI (SF-295 CNS): > 100 µM

COc1ccc(NC(=O)c2cc(OC)c(OC)c(OC)c2)cc1
TGI (SW-620 colon): > 100 µM | TGI (M14 melanoma): > 100 µM | TGI (UACC-62 melanoma): > 100 µM | TGI (ACHN renal): > 100 µM | TGI (HCT-116 colon): > 100 µM | TGI (LOX IMVI melanoma): > 100 µM | TGI (K-562 leukemia): > 100 µM | TGI (CAKI-1 renal): > 100 µM | TGI (SF-295 CNS): > 100 µM

c1cnc2[nH]cc(-c3csc(-c4cn(CCCCN5CCOCC5)c5ccccc45)n3)c2c1
GI50 (SW-620 colon): 1.77 µM | TGI (SW-620 colon): 3.54 µM | GI50 (M14 melanoma): 1.78 µM | TGI (M14 melanoma): 3.62 µM | GI50 (UACC-62 melanoma): 1.79 µM | TGI (UACC-62 melanoma): 3.8 µM | GI50 (HCT-116 colon): 1.65 µM | TGI (HCT-116 colon): 3.05 µM | GI50 (LOX IMVI melanoma): 1.74 µM | TGI (LOX IMVI melanoma): 3.26 µM | GI50 (K-562 leukemia): 2.02 µM | TGI (K-562 leukemia): 3.93 µM | GI50 (CAKI-1 renal): 1.74 µM | TGI (CAKI-1 renal): 3.52 µM | GI50 (SF-295 CNS): 1.92 µM | TGI (SF-295 CNS): 4.04 µM

CCC12CCCC(=O)N1C(CO)C(c1ccccc1)O2 (stereo unspecified)
TGI (SW-620 colon): > 100 µM | TGI (UACC-62 melanoma): > 100 µM | TGI (ACHN renal): > 100 µM | TGI (HCT-116 colon): > 100 µM | TGI (LOX IMVI melanoma): > 100 µM | TGI (K-562 leukemia): > 100 µM | TGI (CAKI-1 renal): > 100 µM | TGI (SF-295 CNS): > 100 µM | TGI (SR leukemia): > 100 µM

COc1ccc2c(c1)OC(N(C(C)=O)C(C)=O)=C(C#N)C2c1ccc(F)cc1 (stereo unspecified)
GI50 (SW-620 colon): 0.553 µM | TGI (SW-620 colon): > 100 µM | GI50 (M14 melanoma): 0.482 µM | TGI (M14 melanoma): > 100 µM | GI50 (UACC-62 melanoma): 0.632 µM | TGI (UACC-62 melanoma): > 100 µM | GI50 (ACHN renal): 4.18 µM | TGI (ACHN renal): > 100 µM | GI50 (HCT-116 colon): 1.26 µM | TGI (HCT-116 colon): > 100 µM | GI50 (LOX IMVI melanoma): 3.26 µM | TGI (LOX IMVI melanoma): > 100 µM | GI50 (SF-295 CNS): 2.83 µM | TGI (SF-295 CNS): > 100 µM | GI50 (SR leukemia): 0.653 µM | TGI (SR leukemia): > 100 µM
